Laboratory results taken from patent publication US20020137929A1, “1 - (3-heterocyclylphenyl) isothiourea, -isourea, -guanidine and -amidine herbicidal agents” (Intellectual Property Department, BASF Aktiengesellschaft, priority 1998, published 2002).

Assays:
[1] = tested on: MOOVA (Monochoria); assay: Preemergence weed control under flooded paddy conditions; format: in vivo, Monochoria vaginalis; details: rated 3-4 weeks after treatment
Summary of the method: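 Seeds or propagules sown in silt loam kept flooded 1.5-3 cm; compounds in 50/50 acetone/water pipetted into flood water at about 0.0313 to 0.500 kg/ha. Greenhouse; visual 0-9 rating versus untreated control 3-4 weeks after treatment.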

[2] = tested on: ECHORC (Watergrass (Calif.)); assay: as above; format: in vivo, Echinochloa oryzoides; details: rated 3-4 weeks after treatment
Summary of the method: (§1)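 Silt loam, seeds in top 0.5 cm; flood held 1.5-3 cm; test cpd as acetone/water 50/50 into flood water, ~0.0313-0.500 kg/ha a.i.; greenhouse 3-4 wk; visual 0-9 score vs control.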

[3] = tested on: GALAP (Galium); assay: Postemergence herbicidal evaluation; format: in vivo, Galium aparine; details: postemergence
Summary of the method: (§2)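 Compound is applied as a foliar spray to seedlings about two weeks old, formulated in equal parts acetone and water with 0.5% TWEEN 20 and delivered at 40 psi to give about 0.0156–0.500 kg per hectare. Injury is rated visually 0–9 after four to five weeks.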

[4] = tested on: ORYSAT (Rice, Tebonnet); assay: Postemergence herbicidal evaluation; format: in vivo, Oryza sativa, (L.) Tebonnet; details: postemergence
Summary of the method: as §2

[5] = tested on: CYPIR (Rice Flatsedge); assay: Postemergence weed control under flooded paddy conditions; format: in vivo, Cyperus iria; details: postemergence weeds, rated 3 to 4 weeks after treatment
Source text: Results of herbicide evaluation are expressed on a rating scale (0-9). The scale is based upon a visual observation of plant stand, vigor, malformation, size, chlorosis and overall plant appearance as compared with a control.
Plastic containers containing weeds which are 3 to 5 cm tall and rice seedlings at the 1.5 to 2.5 leaf stage are flooded with water. The water is maintained at 1.5 to 3 cm above the soil surface for the duration of the experiment. Test compounds are applied as aqueous/ acetone mixtures 50/50 v/v directly into the flood water to provide the equivalent of about 0.0313 to 0.500 kg/ha of active ingredient. The treated containers are placed on greenhouse benches and cared for in accordance with conventional greenhouse procedures. Three to four weeks after treatment, the test is terminated and each container is examined and herbicidal effect rated according to the rating system provided in Example 37. The compounds evaluated are reported by compound number given in Example 37.

[6] = tested on: TRZAWR (Wheat, Winter, cv Riband); assay: Preemergence herbicidal evaluation; format: in vivo, Triticum aestivum; details: preemergence, rated 4-5 weeks after treatment, 0-9 scale
Summary of the method: (§3)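 Rating at 4–5 wk post-spray on a 0–9 visual scale vs control. Application: aqueous acetone, ~0.0156–0.500 kg/ha, to soil surface after seeding, preemergence.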

[7] = tested on: ZEAMX (Corn, Field); assay: Preemergence herbicidal evaluation; format: in vivo, Zea mays; details: preemergence, rated 4-5 weeks after treatment, 0-9 scale
Summary of the method: as §3

[8] = tested on: CYPIR (Rice Flatsedge); assay: Preemergence weed control under flooded paddy conditions; format: in vivo, Cyperus iria; details: rated 3-4 weeks after treatment
Summary of the method: as §1

[9] = tested on: CYPSE (Flatsedge); assay: Postemergence weed control under flooded paddy conditions; format: in vivo, Cyperus serotinus; details: postemergence weeds, rated 3 to 4 weeks after treatment
Summary of the method: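 With weeds 3 to 5 cm tall and rice at the 1.5 to 2.5 leaf stage, containers were flooded and water held 1.5 to 3 cm above soil. Compounds in 50/50 v/v aqueous/acetone went into the flood water at about 0.0313 to 0.500 kg/ha a.i. Effects were visually rated 0–9 against controls after three to four weeks in the greenhouse.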

[10] = tested on: ABUTH (Velvetleaf); assay: Postemergence herbicidal evaluation; format: in vivo, Abutilon theophrasti; details: postemergence
Summary of the method: as §2

[11] = tested on: IPOHE (Morningglory, Ivyleaf); assay: Preemergence herbicidal evaluation; format: in vivo, Ipomoea hederacea; details: preemergence, rated 4-5 weeks after treatment, 0-9 scale
Summary of the method: as §3

[12] = tested on: ECHCG (Barnyardgrass); assay: Postemergence herbicidal evaluation; format: in vivo, Echinochloa crus-galli; details: postemergence
Summary of the method: as §2

[13] = tested on: SETVI (Foxtail, Green); assay: Postemergence herbicidal evaluation; format: in vivo, Setaria viridis; details: postemergence
Summary of the method: as §2

In the case of `CN1C(=O)C(CC(=O)NS(C)(=O)=O)SC1=Nc1cc(-n2c(=O)cc(C(F)(F)F)n(C)c2=O)c(F)cc1Cl` (stereo not shown) [Compound 97, 2-{{2-Chloro-5-[3,6-dihydro-3-methyl-2,6-dioxo-4-(trifluoromethyl)-1(2H)-pyrimidinyl]-4-fluorophenyl}imino}-3-methyl-N-(methylsulfonyl)-4-oxo-5-thiazolidineacetamide], the “MOOVA herbicidal effect rating” value ([1]; 0.0313 kg/ha) is reported as 9.0, the “MOOVA herbicidal effect rating” value ([1]; 0.0625 kg/ha) is reported as 9.0 and the “MOOVA herbicidal effect rating” value ([1]; 0.1250 kg/ha) is reported as 9.0. The “MOOVA herbicidal effect rating” value ([1]; 0.2500 kg/ha) was 9.0, the “ECHORC herbicidal effect rating” value ([2]; 0.0313 kg/ha) was 0.0 and the “ECHORC herbicidal effect rating” value ([2]; 0.0625 kg/ha) was 0.0. For the same compound, the “ECHORC herbicidal effect rating” value ([2]; 0.1250 kg/ha) was 2.0, the “ECHORC herbicidal effect rating” value ([2]; 0.2500 kg/ha) was 3.0 and the GALAP herbicidal rating ([3]; rate 0.0156 kg/ha) was 0.0. For the same compound, the GALAP herbicidal rating ([3]; rate 0.0313 kg/ha) was 0.0, the GALAP herbicidal rating ([3]; rate 0.0625 kg/ha) was 1.0 and the GALAP herbicidal rating ([3]; rate 0.1250 kg/ha) was 1.0. It also gave an ORYSAT herbicidal rating ([4]; rate 0.0156 kg/ha) of 0.5, an ORYSAT herbicidal rating ([4]; rate 0.0313 kg/ha) of 0.5 and an ORYSAT herbicidal rating ([4]; rate 0.0625 kg/ha) of 2.5. For the same compound, the ORYSAT herbicidal rating ([4]; rate 0.1250 kg/ha) was 3.0, the “Herbicidal rating CYPIR” value ([5]; Rate 0.0313 kg/ha) was 0.0 and the “Herbicidal rating CYPIR” value ([5]; Rate 0.0625 kg/ha) was 0.0. The “Herbicidal rating CYPIR” value ([5]; Rate 0.1250 kg/ha) was 3.0, the “Herbicidal rating CYPIR” value ([5]; Rate 0.2500 kg/ha) was 4.0 and the TRZAWR rating ([6]; 0.1250 kg/ha) was 0.0. It also gave a TRZAWR rating ([6]; 0.2500 kg/ha) of 1.0, a TRZAWR rating ([6]; 0.5000 kg/ha) of 2.0 and a ZEAMX rating ([7]; 0.1250 kg/ha) of 0.0. The ZEAMX rating ([7]; 0.2500 kg/ha) was 0.0, the ZEAMX rating ([7]; 0.5000 kg/ha) was 4.0 and the “CYPIR herbicidal effect rating” value ([8]; 0.0313 kg/ha) was 0.0. The “CYPIR herbicidal effect rating” value ([8]; 0.0625 kg/ha) was 0.0, the “CYPIR herbicidal effect rating” value ([8]; 0.1250 kg/ha) was 3.0 and the “CYPIR herbicidal effect rating” value ([8]; 0.2500 kg/ha) was 4.0. For the same compound, the “Herbicidal rating CYPSE” value ([9]; Rate 0.0313 kg/ha) was 0.0, the “Herbicidal rating CYPSE” value ([9]; Rate 0.0625 kg/ha) was 0.0 and the “Herbicidal rating CYPSE” value ([9]; Rate 0.1250 kg/ha) was 0.0. For the same compound, the “Herbicidal rating CYPSE” value ([9]; Rate 0.2500 kg/ha) was 3.0, the ABUTH herbicidal rating ([10]; rate 0.0156 kg/ha) was 4.0 and the ABUTH herbicidal rating ([10]; rate 0.0313 kg/ha) was 4.0. For the same compound, the ABUTH herbicidal rating ([10]; rate 0.0625 kg/ha) was 7.0, the ABUTH herbicidal rating ([10]; rate 0.1250 kg/ha) was 9.0 and the IPOHE rating ([11]; 0.1250 kg/ha) was 1.0. For the same compound, the IPOHE rating ([11]; 0.2500 kg/ha) was 9.0, the IPOHE rating ([11]; 0.5000 kg/ha) was 9.0 and the ECHCG herbicidal rating ([12]; rate 0.0156 kg/ha) was 1.0. For the same compound, the ECHCG herbicidal rating ([12]; rate 0.0313 kg/ha) was 1.0, the ECHCG herbicidal rating ([12]; rate 0.0625 kg/ha) was 3.0 and the ECHCG herbicidal rating ([12]; rate 0.1250 kg/ha) was 6.0. For the same compound, the SETVI herbicidal rating ([13]; rate 0.0156 kg/ha) was 1.0, the SETVI herbicidal rating ([13]; rate 0.0313 kg/ha) was 6.0 and the SETVI herbicidal rating ([13]; rate 0.0625 kg/ha) was 9.0. It also gave an SETVI herbicidal rating ([13]; rate 0.1250 kg/ha) of 9.0.
